Assay results as given in article PMC4414309, “Target Modulation by a Kinase Inhibitor Engineered to Induce a Tandem Blockade of the Epidermal Growth Factor Receptor (EGFR) and c-Src: The Concept of Type III Combi-Targeting” (PLoS ONE, 2015).

What was measured:
MDA-MB-231 cells [1] = test: Wound-healing assay, MDA-MB-231; assay type: cell-based, human; conditions: MDA-MB-231, 0.1 μM, 24h drug exposure
Procedure: MDA-MB-231 and 4T1 cells were plated in 6-well plates (500,000 cells/well) and allowed to attach overnight (37°C, 5% CO2). The following day, media was removed and a cross scratch was made in the middle of the cell monolayer. […] The scratch was visualized at two different time points (0 and 24h) using the Leica DM IL inverted microscope (10X) and images were obtained using the Leica DFC300FX camera.

4T1 tumours = assay type: in vivo; conditions: 40 mg/kg i.v. once/day for 5 days
[2] = test system: NIH3T3-Her14 (EGFR transfected) cells; test: Absorption and hydrolysis kinetics of AL776 in cells (HPLC); assay type: in vitro ADME, mouse
Procedure: NIH3T3-Her14 cells were seeded in 6-well plates (1 x 10^6 cells/well) and grown in DMEM with 10% FBS for 24 h. Cells were then treated with 25 μM of AL776 and incubated at 37°C for 1h, 2h, 6h, 24h or 48h. The media was collected and extracted using twice the volume of methanol, on ice and centrifuged for 20 min at 13,000 rpm at 4°C. The resulting supernatant was filtered, evaporated to dryness and reconstituted with 100 μL of methanol. Cells were collected using trypsin and the cell pellet obtained was rinsed once with PBS and lysed with methanol (500 μL /tube) on ice for 1h. The lysate was centrifuged at 13,000 rpm for 20 min at 4°C and the resulting supernatant was collected into a separate tube and the remaining pellet was subjected to lysis two more times (250 μL /tube). The supernatant from each lysis step were pooled all together, filtered, evaporated to dryness and resuspended in 100 μL of methanol before further analyzing the samples. HPLC analysis was performed using a ACE 5 C18 5 μm column (150 mmx4.6 mm) under elution conditions of gradient 70–75% methanol:water for the first 5 min and isocratic methanol elution until 30 min, using a 0.75 mL/min flow rate. Analyses were performed using a Thermoquest P4000 equipped with a UV2000 detector and an AS300 Autosampler.

EGFR = biological target: T1, EGFR (Homo sapiens, UniProt P00533); test: In vitro kinase assay, EGFR; assay type: biochemical; conditions: ATP 50 μM, average of three independent experiments in duplicate, read-out: IC50 EGFR kinase inhibition
T1 construct: purchased Enzo Life Sciences Inc, NY, USA; Signal Chem, Richmond, Canada
T1 sequence (P00533 25-1210): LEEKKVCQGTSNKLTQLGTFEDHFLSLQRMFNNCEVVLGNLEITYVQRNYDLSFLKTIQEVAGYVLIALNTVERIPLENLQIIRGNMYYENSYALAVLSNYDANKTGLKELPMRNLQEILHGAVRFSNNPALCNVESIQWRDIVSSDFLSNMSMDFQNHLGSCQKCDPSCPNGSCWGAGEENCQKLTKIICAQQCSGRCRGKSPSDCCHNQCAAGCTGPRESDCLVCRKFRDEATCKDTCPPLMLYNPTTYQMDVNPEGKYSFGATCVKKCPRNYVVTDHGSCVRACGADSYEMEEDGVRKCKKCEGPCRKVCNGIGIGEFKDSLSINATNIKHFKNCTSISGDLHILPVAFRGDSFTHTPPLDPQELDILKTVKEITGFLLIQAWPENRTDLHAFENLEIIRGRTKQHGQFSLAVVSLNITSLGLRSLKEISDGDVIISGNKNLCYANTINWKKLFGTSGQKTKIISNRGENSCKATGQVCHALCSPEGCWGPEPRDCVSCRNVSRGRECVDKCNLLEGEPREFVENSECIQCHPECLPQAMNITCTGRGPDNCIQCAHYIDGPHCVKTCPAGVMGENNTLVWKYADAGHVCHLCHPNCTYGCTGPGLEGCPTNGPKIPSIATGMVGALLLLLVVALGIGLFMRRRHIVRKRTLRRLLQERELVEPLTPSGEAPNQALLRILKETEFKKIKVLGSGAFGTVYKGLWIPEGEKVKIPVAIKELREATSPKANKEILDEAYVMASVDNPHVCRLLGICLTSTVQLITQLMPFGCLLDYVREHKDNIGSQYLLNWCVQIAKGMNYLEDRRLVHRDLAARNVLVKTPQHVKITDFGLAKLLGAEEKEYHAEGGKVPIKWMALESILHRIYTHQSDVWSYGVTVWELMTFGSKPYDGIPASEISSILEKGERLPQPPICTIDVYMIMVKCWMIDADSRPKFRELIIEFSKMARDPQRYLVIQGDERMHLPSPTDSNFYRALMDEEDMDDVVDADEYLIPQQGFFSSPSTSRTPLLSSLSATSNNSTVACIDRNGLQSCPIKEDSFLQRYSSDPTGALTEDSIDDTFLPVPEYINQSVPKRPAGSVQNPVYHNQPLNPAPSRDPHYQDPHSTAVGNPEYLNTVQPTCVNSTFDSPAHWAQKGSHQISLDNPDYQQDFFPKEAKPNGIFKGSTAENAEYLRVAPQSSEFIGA
Procedure: The EGFR and c-Src kinase assays were performed in 96-well plates (NuncMaxisorp) coated with PGT (poly L-glutamic acid L-tyrosine, 4:1, Sigma Aldrich, MO, USA) and incubated at 37°C for 48h prior to using. PGT served as the substrate to be phosphorylated by EGFR (Enzo Life Sciences Inc, NY, USA, Signal Chem, Richmond, Canada) and c-Src (Enzo Life Sciences Inc, NY, USA, Signal Chem, Richmond, Canada) in the presence of ATP (50 μM). […] To each well, 15 ng of EGFR (20 μg/ml) or 6 ng of c-Src (0.1 μg/μl) were added. The phosphorylated substrate was detected using an HRP-conjugated anti-phosphotyrosine antibody (Santa Cruz Biotechnology, CA). The signal was developed by the addition of 3, 3’, 5, 5’-tetramethylbenzidine peroxidase substrate (Kierkegaard and Perry Laboratories, Gaithersburg, MD) and the colorimetric reaction was monitored at 450 nm using a microplate reader ELx808 (BioTek Instruments). The IC50 values were calculated using GraphPad Prism 6.0 (GraphPadSoftware, Inc., San Diego, CA). Each experiment was carried out at least three times, in duplicate.

4T1 cells = test: Boyden chamber invasion assay, 4T1; assay type: cell-based, mouse; conditions: 4T1, concentration as low as 0.1 μM, 24h
Procedure: (§1) The invasive property of MDA-MB-231 and 4T1 cells was determined using the Boyden-chamber invasion assay. Cells suspended in serum-free media were plated (120–150,000 cells/well) onto polycarbonate transwell inserts (8 μm pore size, BD Biosciences) coated with matrigel (6%) (BD Biosciences), separating the top and bottom chambers (50 μl/filter). […] The invasive property of cells was observed 24h after treatment by fixing cells in formalin and staining with 0.1% crystal violet (Sigma-Aldrich Canada Ltd). Cells attached on the upper surface of the insert (top chamber) were removed by gently scraping away with a cotton swab, whereas those that invaded onto the lower side of the insert were observed using a microscope (Leica DM IL inverted microscope, 10X). Images of five non-overlapping fields of invading cells were captured using the Leica DFC300FX camera and quantification was done using the Scion Image Analysis (3.53.0.0) software and ImageJ 1.46r software. The results were expressed in terms of percentage of invading cells relative to control and the bar graphs represent the average of three independent experiments.

NIH3T3 wild type cells = test: Growth inhibition, sulforhodamine B (SRB) assay, NIH3T3 wild type; conditions: Mus musculus, NIH3T3, 120 h, read-out: IC50 growth inhibition NIH3T3 – Wt
Procedure: Growth inhibition was measured in cells using the sulforhodamine B (SRB) assay [48]. […] The plates were subsequently rinsed with 1% acetic acid, and allowed to dry overnight. […] The results were analyzed using GraphPad Prism 6.0 (GraphPadSoftware, Inc., San Diego, CA) and the sigmoidal dose response curve was used to determine IC50 values. Each experiment was carried out at least four times, in triplicate.

[3] = LC-MS analysis of AL776 hydrolysis in plasma in vivo; design: species or system CD-1 mice
Procedure: CD-1 mice were divided into groups of three and treated with 80 mg/kg of AL776, injected intraperitoneally (i.p) or intravenously (i.v). Mice were sacrificed and their plasma was collected for further analysis after 0, 5, 15 and 30 min after drug treatment. Plasma samples were extracted using twice the volume of methanol and lysed at 13,000 rpm for 30 min at 4°C. The resulting supernatant from each sample was collected, filtered and evaporated to dryness before reconstituting in 100 μL of methanol. LC-MS analyses were performed on a Synapt G2-S instrument coupled with an Acquity UPLC Class I system both from Waters. Elution rate was set at 500 μL/min using an Eclipse XDB C8, 3.5 um, 2.1 x 100 mm chromatographic column from Agilent Technologies. The experiments were performed with the following eluents: 0.1% aqueous formic acid (eluent A) and methanol (eluent B). The initial mobile phase was 30% B, which was maintained for 0.2 min at the beginning of the run. The following gradient elution was subsequently applied: 30 to 50% B from 0.2 to 4 min; 50 to 80% B from 4 to 10 min; held at 80% B from 10 to 11 min. Thereafter, eluent B was decreased to 30% in 0.2 min and held constant for up to 15 min to allow the column to equilibrate. Each sample was diluted with methanol in order to avoid detector saturation and […] aliquots of the resulting solutions were injected. Analyses were performed with the electrospray interface in positive ion mode and mass spectra acquired from m/z 100 to 1200. For accurate mass determination, Leucine Enkephalin was used as lock mass. The MassLynx software was used for instrument control, data acquisition and data processing.

MDA-MB-231 cells [4] = test: Boyden chamber invasion assay, MDA-MB-231; assay type: cell-based, human; conditions: MDA-MB-231, concentration as low as 0.1 μM, 24h
Procedure: as §1

Cc1nc(Nc2ncc(C(=O)Nc3c(C)cccc3Cl)s2)cc(N2CCN(CCOC(=O)CCC(=O)OCCN(C)Cc3ccc(C(=O)Nc4ccc5ncnc(Nc6cccc(Cl)c6)c5c4)cc3)CC2)n1 [AL776]
Effect on wound-closure (MDA-MB-231 cells [1]): blocked wound-closure | Tumour mass at end of study, control versus treated (4T1 tumours): no difference observed | Effect on tumour growth (tumour volume) (4T1 tumours; monitored two weeks): unable to block tumour growth | Detection of AL776 in cells and extracellular medium ([2]; 25 μM, 24–48h): detectable inside the cells but not in the extracellular medium | Intact AL776 found in the cells ([2]; 24h): 50% | IC50 (EGFR): 0.12 µM | Effect on invasion (4T1 cells): strongly inhibited invasion | IC50 (NIH3T3 wild type cells): 7.6 ± 3 µM | Intact AL776 in plasma ([3]; 80 mg/kg i.p., early time points): no intact AL776 found in plasma | Intact AL776 in plasma ([3]; 80 mg/kg i.v., 30 min post-administration): barely detectable levels | Effect on invasion (MDA-MB-231 cells [4]): strongly inhibited invasion
